Source: patent US8969542B2, “HPV polyepitope constructs and uses thereof” (priority 2007, dated 2015)
Where no end group is shown, it is not given here.

How the values were obtained:
[1] = target: HLA A2902 (Homo sapiens, UniProt P04439, A270S/D101N/D185E/E176V/E277Q/E87Q/F33T/G231S/H175R/I121M/I218V/I322F/K168Q/L300P/L318F/M331R/P208A/P217A/Q86L/T323A/T345S/V100A/V358M); assay: HLA class I competition binding assay using soluble HLA
[2] = target: HLA A3002 (Homo sapiens, UniProt P04439, D101N/D140H/D185E/E176R/F33S/G80R/H175R/K168Q/Q94H/R138E/R41S/V100E); assay: as above
[3] = target: HLA A0101 (Homo sapiens, UniProt P04439, A114D/A174V/A182V/D101N/D185E/E176A/E190D/L180R/Q94H/R68K/S129P/T187R/V100A/V91M/W191G); assay: as above
[4] = target: HLA A2601 (Homo sapiens, UniProt P04439, A114D/A173T/A270S/D101N/D185E/E277Q/E87N/F33Y/G231S/I121R/I218V/K168Q/L180W/L300P/L318F/P208A/P217A/Q86R/Q94H/R138Q/S129P/T187R/T323A/T345S/V100A/V358M); assay: as above
[5] = target: DRB1*0701 (DR7) (Homo sapiens, UniProt P01903+P01911, A100R/A102G/A103Q/D57E/D86V/E43K/F76Y/K127E/L162R/M171V/P40G/Q125H/Q99D/R33Q/R42Y/R54Q/S133A/S66F/T210M/V115G/Y107V/Y59L/Y89S); assay: biochemical
[6] = target: DRB1*0404 (DR4w14) (Homo sapiens, UniProt P01903+P01911, A100R/A169T/F76Y/I96L/K127E/L162R/M171V/N62H/P40V/Q125Y/R42H/S133A/S149N/S66Y/V209L/W38E); assay: biochemical
[7] = target: DRB5*0101 (DR2w2beta-2) (Homo sapiens, UniProt P01903+Q30154); assay: biochemical
[8] = target: DRB4*0101 (DRw53) (Homo sapiens, UniProt P01903+P13762, G164S); assay: biochemical
[9] = target: DRB1*1302 (DR6w19) (Homo sapiens, UniProt P01903+P01911, A100E/A169T/K41T/L162R/M171V/P40S/Q125H/Q178H/Q39Y/Q99D/R42S/S66N/T262R/V115G/W38E/Y61H); assay: biochemical
[10] = target: DRB1*0802 (DR8w2) (Homo sapiens, UniProt P01903+P01911, A100R/A103L/A169T/F76Y/H45Y/I96F/K41T/L162R/M171V/P40S/Q125H/Q178H/Q39Y/Q99D/R218S/R42G/S66Y/V115G/W38E); assay: biochemical
[11] = target: DRB1*0901 (Homo sapiens, UniProt P01903+P01911, A100R/A103E/D57H/D86V/F55Y/F60I/F76Y/I96F/K127E/L162R/M171V/P40D/Q125H/Q99R/R33Q/R42F/S133A/S66N/T210M/V115G/W38K/Y107V/Y59G/Y89S); assay: biochemical
[12] = target: DRB1*1101 (DR5) (Homo sapiens, UniProt P01903+P01911, A100R/A169T/A87E/I96F/K41T/L162R/M171V/P40S/Q125H/Q178H/Q39Y/Q99D/R42S/S66Y/T262R/V115G/W38E); assay: biochemical
[13] = target: DRB1*0301 (DR3) (Homo sapiens, UniProt P01903+P01911, A100K/A102G/A103R/A169T/F55Y/I96L/K41T/L162R/M171V/P40S/Q125H/Q178H/Q39Y/R42S/S66N/T106N/T262R/W38E/Y61H); assay: biochemical
[14] = target: DRB1*0101 (DR1) (Homo sapiens, UniProt P01903+P01911, A100R/D57E/F55L/F60I/F76Y/I96L/L162R/M171V/P40L/Q125E/R42F/V115G/Y59C); assay: biochemical
[15] = target: DRB1*0405 (DR4w15) (Homo sapiens, UniProt P01903+P01911, A100R/A169T/D86S/F76Y/I96L/K127E/L162R/M171V/N62H/P40V/Q125Y/R42H/S133A/S149N/S66Y/V115G/V209L/W38E); assay: biochemical
[16] = target: DRB1*0401 (DR4w4) (Homo sapiens, UniProt P01903+P01911, A100K/A169T/F76Y/I96L/K127E/L162R/M171V/N62H/P40V/Q125Y/R42H/S133A/S149N/S66Y/V115G/V209L/W38E); assay: biochemical
[17] = target: DRB1*1501 (DR2w2beta-1) (Homo sapiens, UniProt P01903+P01911); assay: biochemical

Molecule: C[C@@H](O)[C@H](NC(=O)CN)C(=O)NCC(=O)N[C@@H](CS)C(=O)N[C@@H](CC(N)=O)C(=O)NCC(=O)N[C@@H](Cc1c[nH]c2ccccc12)C(=O)N[C@@H](Cc1ccccc1)C(=O)N[C@@H](Cc1ccc(O)cc1)C(=O)O [compound 23]
- IC50 [1]: 0.116 µM
- IC50 [2]: 0.0091 µM
- IC50 [3]: 0.136 µM
- IC50 [4]: 3.08 µM

Molecule: CC[C@H](C)[C@H](NC(=O)[C@H](Cc1c[nH]c2ccccc12)NC(=O)[C@H](CCC(=O)O)NC(=O)[C@@H]1CCCN1)C(=O)N[C@@H](CCC(N)=O)C(=O)N[C@@H](CCCNC(=N)N)C(=O)N[C@@H](CCC(N)=O)C(=O)N[C@H](C(=O)N[C@H](C(=O)N[C@@H](CC(C)C)C(=O)N[C@@H](CCC(N)=O)C(=O)N[C@@H](Cc1c[nH]cn1)C(=O)N[C@@H](CO)C(=O)N[C@@H](Cc1ccccc1)C(=O)N[C@@H](CC(N)=O)C(=O)O)C(C)C)[C@@H](C)O [compound 90]
- IC50 [5]: > 20 µM

Molecule: CC[C@H](C)[C@H](NC(=O)CNC(=O)[C@H](CCC(=O)O)NC(=O)[C@H](Cc1c[nH]cn1)NC(=O)[C@@H](NC(=O)[C@H](Cc1ccc(O)cc1)NC(=O)[C@H](Cc1ccc(O)cc1)NC(=O)[C@H](CC(C)C)NC(=O)CN)C(C)C)C(=O)N[C@@H](CCCNC(=N)N)C(=O)N[C@H](C(=O)N[C@@H](Cc1ccc(O)cc1)C(=O)N[C@@H](Cc1ccccc1)C(=O)N[C@H](C(=O)N[C@@H](CCC(N)=O)C(=O)O)C(C)C)[C@@H](C)O [compound 93]
- IC50 [6]: > 20 µM
- IC50 [7]: 1 µM
- IC50 [8]: > 20 µM
- IC50 [9]: > 20 µM

Molecule: CC[C@H](C)[C@H](N)C(=O)N[C@@H](CCCNC(=N)N)C(=O)N[C@H](C(=O)N[C@@H](CC(C)C)C(=O)N[C@@H](CCC(=O)O)C(=O)N[C@@H](CC(=O)O)C(=O)N[C@@H](CC(C)C)C(=O)N[C@@H](CC(C)C)C(=O)N[C@@H](CCSC)C(=O)NCC(=O)N[C@H](C(=O)N[C@@H](CC(C)C)C(=O)NCC(=O)N[C@H](C(=O)N[C@H](C(=O)O)C(C)C)[C@@H](C)CC)[C@@H](C)O)[C@@H](C)O [compound 97]
- IC50 [10]: > 20 µM
- IC50 [11]: > 20 µM
- IC50 [12]: > 20 µM
- IC50 [7]: > 20 µM

Molecule: CC[C@H](C)[C@H](NC(=O)[C@H](Cc1c[nH]cn1)NC(=O)[C@H](C)NC(=O)[C@H](Cc1ccc(O)cc1)NC(=O)[C@H](CC(C)C)NC(=O)[C@@H](NC(=O)[C@H](Cc1ccccc1)NC(=O)[C@@H]1CCCN1C(=O)[C@H](CCC(N)=O)NC(=O)[C@@H](NC(=O)[C@H](CC(C)C)NC(=O)[C@@H](NC(=O)[C@H](CCCCN)NC(=O)[C@@H](N)Cc1ccccc1)[C@@H](C)O)[C@@H](C)CC)[C@@H](C)CC)C(=O)N[C@@H](CCC(N)=O)C(=O)O [compound 98]
- IC50 [12]: 6.69 µM

Molecule: CC[C@H](C)[C@H](N)C(=O)N[C@@H](CCC(=O)O)C(=O)N[C@@H](Cc1ccccc1)C(=O)N[C@H](C(=O)N[C@H](C(=O)N[C@@H](Cc1ccccc1)C(=O)N[C@@H](CC(C)C)C(=O)NCC(=O)N[C@@H](C)C(=O)N[C@@H](CC(C)C)C(=O)N[C@@H](CCCCN)C(=O)N[C@@H](CO)C(=O)N[C@@H](Cc1ccccc1)C(=O)N[C@@H](CC(C)C)C(=O)N[C@@H](CCCCN)C(=O)O)[C@@H](C)O)[C@@H](C)CC [compound 99]
- IC50 [11]: > 20 µM
- IC50 [5]: > 20 µM
- IC50 [13]: > 20 µM
- IC50 [14]: 0.03 µM
- IC50 [15]: 3.65 µM

Molecule: CC[C@H](C)[C@H](NC(=O)[C@H](C)NC(=O)[C@H](CCCCN)NC(=O)[C@@H](N)Cc1c[nH]cn1)C(=O)N[C@@H](CCC(=O)O)C(=O)N[C@@H](CC(C)C)C(=O)N[C@@H](CCC(N)=O)C(=O)N[C@@H](CCSC)C(=O)N[C@@H](C)C(=O)N[C@@H](CC(C)C)C(=O)N[C@@H](CCC(N)=O)C(=O)NCC(=O)N[C@@H](CC(C)C)C(=O)N[C@@H](C)C(=O)N[C@@H](CCC(N)=O)C(=O)O [compound 101]
- IC50 [16]: 0.05 µM
- IC50 [8]: 0.003 µM

Molecule: CC(C)C[C@H](NC(=O)[C@H](CCC(N)=O)NC(=O)[C@H](CCC(N)=O)NC(=O)[C@@H](N)Cc1ccccc1)C(=O)N[C@@H](Cc1ccccc1)C(=O)N[C@@H](CC(C)C)C(=O)N[C@@H](CC(N)=O)C(=O)N[C@H](C(=O)N[C@@H](CC(C)C)C(=O)N[C@@H](CO)C(=O)N[C@@H](Cc1ccccc1)C(=O)N[C@H](C(=O)N[C@@H](CS)C(=O)N1CCC[C@H]1C(=O)N[C@@H](Cc1c[nH]c2ccccc12)C(=O)O)C(C)C)[C@@H](C)O [compound 105]
- IC50 [10]: 9 µM

Molecule: CC[C@H](C)[C@H](N)C(=O)N[C@@H](CCCNC(=N)N)C(=O)N[C@H](C(=O)N[C@@H](CC(C)C)C(=O)N[C@@H](CCC(N)=O)C(=O)N[C@@H](CCC(=O)O)C(=O)N[C@@H](CC(C)C)C(=O)N[C@@H](CC(C)C)C(=O)N[C@@H](CCSC)C(=O)NCC(=O)N[C@@H](CO)C(=O)N[C@@H](Cc1ccccc1)C(=O)NCC(=O)N[C@H](C(=O)N[C@H](C(=O)O)C(C)C)[C@@H](C)CC)[C@@H](C)CC [compound 112]
- IC50 [14]: 0.05 µM

Molecule: CC(C)C[C@H](NC(=O)[C@H](CCC(N)=O)NC(=O)[C@H](CCC(N)=O)NC(=O)[C@H](CC(C)C)NC(=O)[C@@H](NC(=O)[C@H](CCCNC(=N)N)NC(=O)[C@@H](N)CC(C)C)[C@@H](C)O)C(=O)N[C@@H](Cc1ccccc1)C(=O)N[C@@H](CC(C)C)C(=O)N[C@@H](CO)C(=O)N[C@H](C(=O)N[C@@H](CC(C)C)C(=O)N[C@@H](CO)C(=O)N[C@@H](Cc1ccccc1)C(=O)N[C@H](C(=O)O)C(C)C)[C@@H](C)O [compound 121]
- IC50 [12]: 1.67 µM

Molecule: DWVMAIFGVNPTVAEGF [compound 114]
- IC50 [10]: 4.27 µM
- IC50 [6]: 0.02 µM
- IC50 [11]: 17.9 µM
- IC50 [12]: 4.96 µM
- IC50 [7]: 0.387 µM
- IC50 [8]: 0.571 µM
- IC50 [13]: 3.75 µM
- IC50 [15]: 0.092 µM

Molecule: ISDYRHYCY [compound 5]
- IC50 [3]: 0.01 µM

Molecule: NGWFYVEAVIDRQTG [compound 106]
- IC50 [16]: 0.845 µM
- IC50 [11]: 3.67 µM
- IC50 [7]: 1.2 µM
- IC50 [5]: 1.46 µM
- IC50 [13]: 2.8 µM
- IC50 [14]: 1.86 µM
- IC50 [15]: 0.178 µM

Molecule: QVDYYGLYY [compound 2]
- IC50 [2]: 0.16 µM
- IC50 [3]: 0.0027 µM
- IC50 [4]: 0.251 µM

Molecule: STDLRDHIDY [compound 3]
- IC50 [3]: 0.113 µM
- IC50 [4]: 0.758 µM

Molecule: WKHIRLECVLMYKAR [compound 108]
- IC50 [10]: 0.476 µM
- IC50 [16]: 0.263 µM
- IC50 [11]: 11.8 µM
- IC50 [12]: 0.081 µM
- IC50 [7]: 0.412 µM
- IC50 [17]: 0.134 µM
- IC50 [8]: 0.102 µM
- IC50 [5]: 16.4 µM
- IC50 [13]: 0.146 µM
- IC50 [15]: 0.071 µM
